From patent US11629146B2, “Substituted [1,2,4]triazolo[4,3-a]pyrazines as modulators of sodium channel activity” (Praxis Precision Medicines, Inc., priority 2016, dated 2023)
Read-outs that look alike come from different tables or passages of the source.

Target: human NaV1.6 (hNaV1.6) (Homo sapiens (Human), UniProt Q9UQD0)
Test: INaL inhibition at hNaV1.6, PatchXpress electrophysiology
Format: cell-based
Description: Functional characterization of exemplary compounds to modulate INaL expressed by the Nay 1.6 voltage-gated sodium channel was accomplished using the PatchXpress™ high throughput electrophysiology platform (Molecular Devices, Sunnyvale, Calif.). HEK-293 cells expressing recombinant, human NaV1.6 (hNaV1.6) were grown in DMEM/high-glucose Dulbecco's modified, 10% FBS, 2 mM sodium pyruvate, 10 mM HEPES and 400 μg/mL G418. Cells were grown to 50%-80% confluency prior to harvesting. […] The onboard liquid handling facility of the PatchXpress was used for dispensing cells and applying test compounds. Nay late currents were evoked by the application of 300 nM ATX-II. […] INaL amplitude and stability were determined by analyzing the mean current amplitude over the final 20 ms of the test pulse. […] Percent steady-state inhibition of INaL was calculated as: [(INaL_compound)/(INaL_control)]*100, where INaL_compound and INaL_control represent INaL recorded in the presence or absence of compound, respectively.

[1] = HEK293, 1 μM, HEK-293 cells expressing hNaV1.6, late current evoked by 300 nM ATX-II, read-out: INaL v1.6 (1 μM, % Inhibition)
[2] = HEK293, read-out: INaL v1.6 (1 μM, % Inhibition)

Sequence of human NaV1.6 (hNaV1.6) (Q9UQD0 whole entry): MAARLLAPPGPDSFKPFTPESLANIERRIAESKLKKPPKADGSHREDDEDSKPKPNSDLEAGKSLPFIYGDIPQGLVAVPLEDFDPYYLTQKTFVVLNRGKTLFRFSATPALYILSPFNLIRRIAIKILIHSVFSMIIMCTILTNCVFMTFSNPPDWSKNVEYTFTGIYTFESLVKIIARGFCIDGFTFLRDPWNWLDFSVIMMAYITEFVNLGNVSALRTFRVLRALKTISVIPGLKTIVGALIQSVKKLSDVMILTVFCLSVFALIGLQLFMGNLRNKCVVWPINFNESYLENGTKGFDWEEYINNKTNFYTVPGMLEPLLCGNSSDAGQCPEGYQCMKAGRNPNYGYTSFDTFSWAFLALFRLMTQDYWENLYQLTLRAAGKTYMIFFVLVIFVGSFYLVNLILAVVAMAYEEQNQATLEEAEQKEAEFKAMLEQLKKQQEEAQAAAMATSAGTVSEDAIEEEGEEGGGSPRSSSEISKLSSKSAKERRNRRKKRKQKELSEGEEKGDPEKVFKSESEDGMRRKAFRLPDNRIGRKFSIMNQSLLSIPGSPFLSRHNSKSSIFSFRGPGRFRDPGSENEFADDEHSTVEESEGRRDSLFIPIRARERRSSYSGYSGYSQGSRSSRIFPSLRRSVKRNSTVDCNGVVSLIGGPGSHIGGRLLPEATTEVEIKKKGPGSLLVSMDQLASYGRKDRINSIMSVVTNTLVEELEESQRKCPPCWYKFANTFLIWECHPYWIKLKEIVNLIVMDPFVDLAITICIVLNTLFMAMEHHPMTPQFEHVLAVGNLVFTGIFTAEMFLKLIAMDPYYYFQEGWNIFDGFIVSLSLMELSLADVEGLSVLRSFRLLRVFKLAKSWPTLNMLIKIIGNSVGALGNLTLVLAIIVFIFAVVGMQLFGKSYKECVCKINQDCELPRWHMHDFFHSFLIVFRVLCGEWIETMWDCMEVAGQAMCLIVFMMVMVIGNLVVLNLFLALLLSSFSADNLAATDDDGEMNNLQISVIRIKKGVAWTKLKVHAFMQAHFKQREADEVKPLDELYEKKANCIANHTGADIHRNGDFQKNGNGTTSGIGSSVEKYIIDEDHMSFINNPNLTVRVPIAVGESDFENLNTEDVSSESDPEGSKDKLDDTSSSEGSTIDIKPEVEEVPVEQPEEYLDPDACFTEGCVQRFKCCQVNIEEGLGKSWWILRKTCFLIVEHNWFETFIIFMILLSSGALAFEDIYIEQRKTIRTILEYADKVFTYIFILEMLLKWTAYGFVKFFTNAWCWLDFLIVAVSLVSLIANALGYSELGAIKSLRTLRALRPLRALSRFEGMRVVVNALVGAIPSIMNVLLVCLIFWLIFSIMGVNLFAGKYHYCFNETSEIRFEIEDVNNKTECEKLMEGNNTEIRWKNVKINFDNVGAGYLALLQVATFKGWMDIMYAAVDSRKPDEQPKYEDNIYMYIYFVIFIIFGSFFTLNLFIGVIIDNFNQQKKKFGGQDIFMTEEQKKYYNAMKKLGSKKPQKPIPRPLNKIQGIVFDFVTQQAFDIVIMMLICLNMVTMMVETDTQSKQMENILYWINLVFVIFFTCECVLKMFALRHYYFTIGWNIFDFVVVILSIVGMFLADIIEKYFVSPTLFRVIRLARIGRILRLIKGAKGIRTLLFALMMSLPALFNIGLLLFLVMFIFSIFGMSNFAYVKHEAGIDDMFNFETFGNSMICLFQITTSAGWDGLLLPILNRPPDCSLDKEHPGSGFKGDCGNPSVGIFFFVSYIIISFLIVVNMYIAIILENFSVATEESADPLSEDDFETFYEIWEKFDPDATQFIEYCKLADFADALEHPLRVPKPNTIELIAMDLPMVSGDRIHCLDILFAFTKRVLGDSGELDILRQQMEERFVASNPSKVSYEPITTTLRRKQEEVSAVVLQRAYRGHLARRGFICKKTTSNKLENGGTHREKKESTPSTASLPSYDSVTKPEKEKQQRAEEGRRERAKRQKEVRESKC

Compound | inhibition at 1 µM [1] [%] | further results
FC(F)c1nnc2cnc(-c3ccc(OCC(F)(F)F)nc3)cn12 [Compound 50] | 30 to 70 | 
FC(F)(F)Oc1ccc(-c2cn3c(C[C@H]4CCCCO4)nnc3cn2)cc1 [Compound 129, 3-[[(2R)-tetrahydropyran-2-yl]methyl]-6-[4-(trifluoromethoxy)phenyl]-[1,2,4]triazolo[4,3-a]pyrazine] | < 30 | 
FC(F)(F)Oc1ccc(-c2ccc3nnc(CC4CCOCC4)n3n2)cc1 [Compound 39] |  | inhibition at 1 µM [2]: < 30%
CC(C)c1nnc2cnc(-c3ccc(OC(F)(F)F)cc3)cn12 [Compound 75] | < 30 | 
C[C@@H](Oc1ncc(-c2cn3c(C(F)F)nnc3cn2)cc1F)C(F)(F)F [Compound 134] |  | INaL v1.6 (1 μM, % Inhibition) (1 μM, HEK-293 cells expressing hNaV1.6, late current evoked by 300 nM ATX-II): C (inhibition of greater than 70%)
Fc1cc(-c2ccc3nnc(C(F)F)n3n2)cnc1OCC(F)(F)F [Compound 85] | < 30 | 
FC(F)(F)Oc1ccc(Cl)c(-c2ccc3nnc(C(F)(F)F)n3n2)c1 [Compound 35] | < 30 | 
N#Cc1ccc(OC(F)(F)F)cc1-c1ccc2nnc(C(F)(F)F)n2n1 [Compound 40] | < 30 | 
COC(C)(C)c1ccc(-c2cn3c(C(F)F)nnc3cn2)cc1 [Compound 51] | < 30 | 
FC(F)(F)c1nnc2ccc(-c3ccc([C@H]4CC4(F)F)cc3)nn12 [Compound 121, 6-[4-[(1R)-2,2-difluorocyclopropyl]phenyl]-3-(trifluoromethyl)-[1,2,4]triazolo[4,3-b]pyridazine] |  | inhibition at 1 µM [2]: > 70%
N#CC1(c2ccc(-c3ccc4nnc(C(F)(F)F)n4n3)cc2)CCC1 [Compound 60] |  | inhibition at 1 µM [2]: 30 to 70%
FC(F)(F)Oc1ccc(-c2cn3c(C4CCOCC4)nnc3cn2)cc1 [Compound 145] |  | inhibition at 1 µM [2]: < 30%
Fc1cc(-c2ccc3nnc(C4(F)CC4)n3n2)cnc1OCC(F)(F)F [Compound 88] | 30 to 70 | 
N#Cc1cc(C(F)(F)F)ccc1-c1ccc2nnc(C(F)(F)F)n2n1 [Compound 4] | < 30 | 
FC(F)(F)OCc1ccc(-c2ccc3nnc(C(F)(F)F)n3n2)cc1 [Compound 118] | > 70 | 
COCc1cc(C(F)(F)F)ccc1-c1cn2c(C(F)F)nnc2cn1 [Compound 141] | 30 to 70 | 
FC(F)(F)COc1nnc2cnc(-c3ccc(OC(F)(F)F)cc3)cn12 [Compound 150] | < 30 | 
FC(F)(F)Oc1ccc(-c2cnc3nncn3c2)cc1 [Compound 55] | < 30 | 
COc1cc(C2(C#N)CC2)ccc1-c1cn2c(C(F)(F)F)nnc2cn1 [Compound 64] | < 30 | 
FC(F)(F)Oc1ccc(-c2cn3c(C4CC4)nnc3cn2)cc1 [Compound 80] | 30 to 70 | 
Cc1nnc2cnc(-c3ccc(OC(F)(F)F)cc3)cn12 [Compound 95] |  | inhibition at 1 µM [2]: < 30%

Compound | inhibition at 1 µM [1] [%] | further results
CC(Oc1ncc(-c2cn3c(C(F)(F)F)nnc3cn2)cc1F)C(F)(F)F (stereo not drawn) [Compound 133] | > 70 | 
COCc1cc(OC(F)(F)F)ccc1-c1ccc2nnc(C(F)F)n2n1 [Compound 137] | 30 to 70 | 
COCc1cc2nnc(C(F)(F)F)n2nc1-c1ccc(OC(F)(F)F)cc1 [Compound 143] | < 30 | 
FC(F)c1nnc2cnc(-c3ccc(OC(F)(F)F)cc3)cn12 [Compound 47] | 30 to 70 | 
FC(F)(F)Oc1ccc(-c2cn3c(C[C@@H]4CCCCO4)nnc3cn2)cc1 [Compound 130, 3-[[(2S)-tetrahydropyran-2-yl]methyl]-6-[4-(trifluoromethoxy)phenyl]-[1,2,4]triazolo[4,3-a]pyrazine] | 30 to 70 | 
FC(F)Oc1ccc(-c2ccc3nnc(C(F)(F)F)n3n2)cc1 [Compound 116] | > 70 | 
COc1cc(OC(F)(F)F)ccc1-c1cn2c(C(F)F)nnc2cn1 [Compound 48] | < 30 | 
N#CC1(c2ccc(-c3ccc4nnc(C(F)(F)F)n4n3)cc2F)CC1 [Compound 104] |  | inhibition at 1 µM [2]: < 30%
FCCc1nnc2cnc(-c3ccc(OC(F)(F)F)cc3)cn12 [Compound 119] | < 30 | 
FC(F)(F)c1nnc2cnc(-c3ccc([C@H]4CC4(F)F)cc3)cn12 [Compound 151, 6-[4-[(1R)-2,2-difluorocyclopropyl]phenyl]-3-(trifluoromethyl)-[1,2,4]triazolo[4,3-a]pyrazine] | 30 to 70 | 
FC(F)(F)COc1ccc(-c2ccc3nnc(C(F)(F)F)n3n2)nc1 [Compound 58] | 30 to 70 | 
O=C(Cc1nnc2cnc(-c3ccc(OC(F)(F)F)cc3)cn12)N1CCCC1 [Compound 114] | 30 to 70 | 
FC(F)(F)Oc1ccc(-c2cnc3nnc(C(F)(F)F)n3c2)cc1 [Compound 54] | < 30 | 
FC(F)OCc1cc(OC(F)(F)F)ccc1-c1ccc2nnc(C(F)(F)F)n2n1 [Compound 101] | 30 to 70 | 
FC(F)Oc1ccc(-c2cn3c(C(F)F)nnc3cn2)cc1 [Compound 138] | < 30 | 
COC(F)(F)c1nnc2ccc(-c3ccc(C(F)(F)F)cc3C)nn12 [Compound 111] | > 70 | 
N#CC1(c2ccc(-c3cn4c(C(F)(F)F)nnc4cn3)cc2)CC1 [Compound 67] | < 30 | 
OCc1cc(-c2ccc3nnc(C(F)(F)F)n3n2)ccc1OC(F)(F)F [Compound 115, [2-(trifluoromethoxy)-5-[3-(trifluoromethyl)-[1,2,4]triazolo[4,3-b]pyridazin-6-yl]phenyl]methanol] | 30 to 70 | 
Fc1cc(-c2ccc3nnc(C(F)(F)F)n3n2)ccc1OC1CC(F)(F)C1 [Compound 100] | 30 to 70 | 
Fc1cc(-c2cn3c(C(F)(F)F)nnc3cn2)ccc1OC(F)(F)F [Compound 79] | > 70 | 

Continued, in another order:

inhibition at 1 µM [1] [%] | Compound | further results
< 30 | Nc1cc2nnc(C(F)(F)F)n2nc1-c1ccc(OC(F)(F)F)cc1 [Compound 190, 6-[4-(trifluoromethoxy)phenyl]-3-(trifluoromethyl)-[1,2,4]triazolo[4,3-b]pyridazin-7-amine] | 
< 30 | CC(=O)Nc1cc(-c2ccc(OC(F)(F)F)cc2)nn2c(C(F)(F)F)nnc12 [Compound 177] | 
30 to 70 | COCc1cc(-c2cn3c(C(F)(F)F)nnc3cn2)ccc1C(F)(F)F [Compound 157] | 
30 to 70 | Fc1ccc(Oc2nnc3cnc(-c4cnc(OCC(F)(F)F)c(F)c4)cn23)cc1 [Compound 188] | 
> 70 | C[C@H](Oc1ccc(-c2ccc3nnc(C(F)(F)F)n3n2)cn1)C(F)(F)F [Compound 200, 3-(trifluoromethyl)-6-[6-[(1S)-2,2,2-trifluoro-1-methyl-ethoxy]-3-pyridyl]-[1,2,4]triazolo[4,3-b]pyridazine] | 
30 to 70 | Cc1cc(OC2CC(F)(F)C2)ccc1-c1cn2c(C(F)(F)F)nnc2cn1 [Compound 174] | 
< 30 | Nc1cc(-c2ccc(OC(F)(F)F)cc2)nn2c(C(F)(F)F)nnc12 [Compound 176, 6-[4-(trifluoromethoxy)phenyl]-3-(trifluoromethyl)-[1,2,4]triazolo[4,3-b]pyridazin-8-amine] | 
< 30 | COCc1nc(-c2ccc(OC(F)(F)F)cc2)cn2c(C(F)(F)F)nnc12 [Compound 192] | 
> 70 | FC(F)(F)c1nnc2cnc(-c3ccc([C@@H]4CC4(F)F)cc3)cn12 [Compound 152, 6-[4-[(1S)-2,2-difluorocyclopropyl]phenyl]-3-(trifluoromethyl)-[1,2,4]triazolo[4,3-a]pyrazine] | 
< 30 | FC(F)(F)Oc1ccc(-c2cn3c([C@H]4CCOC4)nnc3cn2)cc1 [Compound 160, 3-[(3R)-tetrahydrofuran-3-yl]-6-[4-(trifluoromethoxy)phenyl]-[1,2,4]triazolo[4,3-a]pyrazine] | 
30 to 70 | COCc1cc(-c2cn3c(C(F)(F)F)nnc3cn2)ccc1OC(F)(F)F [Compound 173] | 
< 30 | NC(=O)c1cc(-c2ccc(OC(F)(F)F)cc2)nn2c(C(F)(F)F)nnc12 [Compound 183] | 
> 70 | C[C@@H](Oc1ccc(-c2ccc3nnc(C(F)(F)F)n3n2)cn1)C(F)(F)F [Compound 199, 3-(trifluoromethyl)-6-[6-[(1R)-2,2,2-trifluoro-1-methyl-ethoxy]-3-pyridyl]-[1,2,4]triazolo[4,3-b]pyridazine] | 
< 30 | FC(F)(F)Oc1ccc(-c2cn3c(C[C@H]4CCCOC4)nnc3cn2)cc1 (single isomer, unassigned) [Compound 154] | 
< 30 | OCc1cc(-c2ccc(OC(F)(F)F)cc2)nn2c(C(F)(F)F)nnc12 [Compound 186] | 
< 30 | OCc1ccc(-c2cn3c(C(F)F)nnc3cn2)cc1 [Compound 172, [4-[3-(difluoromethyl)-[1,2,4]triazolo[4,3-a]pyrazin-6-yl]phenyl]methanol] | 
< 30 | FC(F)(F)Oc1ccc(-c2cn3c(C[C@@H]4CCCOC4)nnc3cn2)cc1 (single isomer, unassigned) [Compound 155] | 
30 to 70 | FC(F)c1nnc2ccc(-c3ccc([C@H]4CC4(F)F)cc3)nn12 [Compound 164, 6-[4-[(1R)-2,2-difluorocyclopropyl]phenyl]-3-(difluoromethyl)-[1,2,4]triazolo[4,3-b]pyridazine] | 
< 30 | O=C(O)c1cc2nnc(C(F)(F)F)n2nc1-c1ccc(OC(F)(F)F)cc1 [Compound 184, 6-[4-(trifluoromethoxy)phenyl]-3-(trifluoromethyl)-[1,2,4]triazolo[4,3-b]pyridazine-7-carboxylic acid] | 
